#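 Compound exposure: 48 hours, 5 concentrations, 96-well plates. At the TGI there is no net growth.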
# Tests used:
# Assay in all cases: inhibition of tumour cell growth, NCI panel, 48 h
# MDA-MB-435 = test system: MDA-MB-435
# UO-31 renal = test system: UO-31 renal
# OVCAR-8 ovarian = test system: OVCAR-8 ovarian
# IGROV1 ovarian = test system: IGROV1 ovarian
# OVCAR-4 ovarian = test system: OVCAR-4 ovarian
# SN12C renal = test system: SN12C renal
# MALME-3M melanoma = test system: MALME-3M melanoma
# U251 CNS = test system: U251 CNS
# SF-268 CNS = test system: SF-268 CNS
# A498 renal = test system: A498 renal
# NCI-H460 lung = test system: NCI-H460 lung
# SK-MEL-2 melanoma = test system: SK-MEL-2 melanoma
# OVCAR-5 ovarian = test system: OVCAR-5 ovarian
# NCI/ADR-RES ovarian = test system: NCI/ADR-RES ovarian
# HT29 colon = test system: HT29 colon
# MDA-MB-231 breast = test system: MDA-MB-231 breast
# SK-MEL-28 melanoma = test system: SK-MEL-28 melanoma
# SF-295 CNS = test system: SF-295 CNS
# HS 578T breast = test system: HS 578T breast
# K-562 leukemia = test system: K-562 leukemia
# MCF7 breast = test system: MCF7 breast
# SNB-19 CNS = test system: SNB-19 CNS
# SK-OV-3 ovarian = test system: SK-OV-3 ovarian
# UACC-257 melanoma = test system: UACC-257 melanoma
# TK-10 renal = test system: TK-10 renal
# LOX IMVI melanoma = test system: LOX IMVI melanoma
# HCT-15 colon = test system: HCT-15 colon
# KM12 colon = test system: KM12 colon
# DU-145 prostate = test system: DU-145 prostate
# M14 melanoma = test system: M14 melanoma
# UACC-62 melanoma = test system: UACC-62 melanoma
# MDA-N = test system: MDA-N
# CCRF-CEM leukemia = test system: CCRF-CEM leukemia
# NCI-H522 lung = test system: NCI-H522 lung
# NCI-H226 lung = test system: NCI-H226 lung
# ACHN renal = test system: ACHN renal
# HOP-92 NSCLC = test system: HOP-92 NSCLC
# 786-0 renal = test system: 786-0 renal
# EKVX NSCLC = test system: EKVX NSCLC
# RPMI-8226 leukemia = test system: RPMI-8226 leukemia
# MOLT-4 leukemia = test system: MOLT-4 leukemia
# OVCAR-3 ovarian = test system: OVCAR-3 ovarian
# HCT-116 colon = test system: HCT-116 colon
# BT-549 breast = test system: BT-549 breast
# CAKI-1 renal = test system: CAKI-1 renal
# PC-3 prostate = test system: PC-3 prostate
# A549 NSCLC = test system: A549 NSCLC
# HCC-2998 colon = test system: HCC-2998 colon
# COLO 205 colon = test system: COLO 205 colon
# SW-620 colon = test system: SW-620 colon
# NCI-H23 lung = test system: NCI-H23 lung
# T-47D breast = test system: T-47D breast
# SK-MEL-5 melanoma = test system: SK-MEL-5 melanoma
# HOP-62 NSCLC = test system: HOP-62 NSCLC
# SNB-75 CNS = test system: SNB-75 CNS
# SR leukemia = test system: SR leukemia
# HL-60(TB) leukemia = test system: HL-60(TB) leukemia
# RXF 393 renal = test system: RXF 393 renal
# SF-539 CNS = test system: SF-539 CNS
compound,measurement,setting,value
Cc1cc(N)c2cc(NC(=O)Nc3ccc4nc(C)cc(N)c4c3)ccc2n1,TGI,MDA-MB-435,> 100 µM
same,TGI,UO-31 renal,> 100 µM
same,TGI,OVCAR-8 ovarian,> 100 µM
same,TGI,IGROV1 ovarian,> 100 µM
same,TGI,OVCAR-4 ovarian,> 100 µM
same,TGI,SN12C renal,> 100 µM
same,TGI,MALME-3M melanoma,> 100 µM
same,TGI,U251 CNS,> 100 µM
same,TGI,SF-268 CNS,> 100 µM
same,TGI,A498 renal,> 100 µM
same,TGI,NCI-H460 lung,> 100 µM
same,TGI,SK-MEL-2 melanoma,> 100 µM
same,TGI,OVCAR-5 ovarian,> 100 µM
same,TGI,NCI/ADR-RES ovarian,> 100 µM
same,TGI,HT29 colon,> 100 µM
same,TGI,MDA-MB-231 breast,> 100 µM
same,TGI,SK-MEL-28 melanoma,> 100 µM
same,TGI,SF-295 CNS,> 100 µM
same,TGI,HS 578T breast,> 100 µM
same,TGI,K-562 leukemia,> 100 µM
same,TGI,MCF7 breast,> 100 µM
same,TGI,SNB-19 CNS,> 100 µM
same,TGI,SK-OV-3 ovarian,> 100 µM
same,TGI,UACC-257 melanoma,> 100 µM
same,TGI,TK-10 renal,> 100 µM
same,TGI,LOX IMVI melanoma,> 100 µM
same,TGI,HCT-15 colon,> 100 µM
same,TGI,KM12 colon,> 100 µM
same,TGI,DU-145 prostate,> 100 µM
same,TGI,M14 melanoma,> 100 µM
same,TGI,UACC-62 melanoma,> 100 µM
same,TGI,MDA-N,> 100 µM
same,TGI,CCRF-CEM leukemia,> 100 µM
same,TGI,NCI-H522 lung,> 100 µM
same,TGI,NCI-H226 lung,> 100 µM
same,TGI,ACHN renal,> 100 µM
same,TGI,HOP-92 NSCLC,> 100 µM
same,TGI,786-0 renal,> 100 µM
same,TGI,EKVX NSCLC,> 100 µM
same,TGI,RPMI-8226 leukemia,> 100 µM
same,TGI,MOLT-4 leukemia,> 100 µM
same,TGI,OVCAR-3 ovarian,> 100 µM
same,TGI,HCT-116 colon,> 100 µM
same,TGI,BT-549 breast,> 100 µM
same,TGI,CAKI-1 renal,> 100 µM
same,TGI,PC-3 prostate,> 100 µM
same,TGI,A549 NSCLC,> 100 µM
same,TGI,HCC-2998 colon,> 100 µM
same,TGI,COLO 205 colon,> 100 µM
same,TGI,SW-620 colon,> 100 µM
same,TGI,NCI-H23 lung,> 100 µM
same,TGI,T-47D breast,> 100 µM
same,TGI,SK-MEL-5 melanoma,> 100 µM
same,TGI,HOP-62 NSCLC,> 100 µM
NNc1ncnc2cccc(Cl)c12,TGI,UO-31 renal,> 100 µM
same,TGI,OVCAR-8 ovarian,> 100 µM
same,TGI,IGROV1 ovarian,> 100 µM
same,TGI,OVCAR-4 ovarian,> 100 µM
same,TGI,SN12C renal,> 100 µM
same,TGI,MALME-3M melanoma,> 100 µM
same,TGI,U251 CNS,> 100 µM
same,TGI,SF-268 CNS,> 100 µM
same,TGI,A498 renal,> 100 µM
same,TGI,NCI-H460 lung,> 100 µM
same,TGI,OVCAR-5 ovarian,> 100 µM
same,TGI,NCI/ADR-RES ovarian,> 100 µM
same,TGI,HT29 colon,> 100 µM
same,TGI,MDA-MB-231 breast,> 100 µM
same,TGI,SK-MEL-28 melanoma,> 100 µM
same,TGI,SF-295 CNS,> 100 µM
same,TGI,HS 578T breast,> 100 µM
same,TGI,K-562 leukemia,> 100 µM
same,TGI,SNB-75 CNS,> 100 µM
same,TGI,MCF7 breast,> 100 µM
same,TGI,SNB-19 CNS,> 100 µM
same,TGI,SR leukemia,> 100 µM
same,TGI,SK-OV-3 ovarian,> 100 µM
same,TGI,UACC-257 melanoma,> 100 µM
same,TGI,TK-10 renal,> 100 µM
same,TGI,HL-60(TB) leukemia,> 100 µM
same,TGI,HCT-15 colon,> 100 µM
same,TGI,KM12 colon,> 100 µM
same,TGI,DU-145 prostate,> 100 µM
same,TGI,M14 melanoma,> 100 µM
same,TGI,UACC-62 melanoma,> 100 µM
same,TGI,MDA-N,> 100 µM
same,TGI,CCRF-CEM leukemia,> 100 µM
same,TGI,NCI-H522 lung,> 100 µM
same,TGI,NCI-H226 lung,> 100 µM
same,TGI,ACHN renal,> 100 µM
same,TGI,RXF 393 renal,> 100 µM
same,TGI,786-0 renal,> 100 µM
same,TGI,EKVX NSCLC,32 µM
same,TGI,MOLT-4 leukemia,> 100 µM
same,TGI,OVCAR-3 ovarian,> 100 µM
same,TGI,HCT-116 colon,> 100 µM
same,TGI,BT-549 breast,> 100 µM
same,TGI,CAKI-1 renal,> 100 µM
same,TGI,PC-3 prostate,> 100 µM
same,TGI,A549 NSCLC,> 100 µM
same,TGI,HCC-2998 colon,> 100 µM
same,TGI,COLO 205 colon,> 100 µM
same,TGI,SW-620 colon,> 100 µM
same,TGI,SF-539 CNS,> 100 µM
same,TGI,NCI-H23 lung,> 100 µM
same,TGI,T-47D breast,> 100 µM
same,TGI,SK-MEL-5 melanoma,> 100 µM
same,TGI,HOP-62 NSCLC,> 100 µM

# — PubChem BioAssay (NCI)
